Like-named read-outs stand apart in the source and are kept apart here.
Experiments:
[1] = target: protein kinases (human kinome) (Homo sapiens, UniProt P24941); assay type: cell-based
[2] = target: protein kinases (human kinome) (Homo sapiens, UniProt P41240); assay type: cell-based; conditions: for logFC of CSK: Accession P41240; for logFC CSK: CSK (P41240), down
[3] = target: protein kinases (human kinome) (Homo sapiens, UniProt Q15118); assay type: cell-based; conditions: PDK1 Q15118, experiment wp147
[4] = target: protein kinases (human kinome) (Homo sapiens, UniProt Q15119); assay type: cell-based; conditions: experiment wp147, 4 uM
[5] = target: T1, extended human kinome (kinase-like proteins) (Homo sapiens, UniProt Q53R41); test: Whole cell quantitative proteomics: extended kinome hits
T1 sequence (Q53R41 1-847): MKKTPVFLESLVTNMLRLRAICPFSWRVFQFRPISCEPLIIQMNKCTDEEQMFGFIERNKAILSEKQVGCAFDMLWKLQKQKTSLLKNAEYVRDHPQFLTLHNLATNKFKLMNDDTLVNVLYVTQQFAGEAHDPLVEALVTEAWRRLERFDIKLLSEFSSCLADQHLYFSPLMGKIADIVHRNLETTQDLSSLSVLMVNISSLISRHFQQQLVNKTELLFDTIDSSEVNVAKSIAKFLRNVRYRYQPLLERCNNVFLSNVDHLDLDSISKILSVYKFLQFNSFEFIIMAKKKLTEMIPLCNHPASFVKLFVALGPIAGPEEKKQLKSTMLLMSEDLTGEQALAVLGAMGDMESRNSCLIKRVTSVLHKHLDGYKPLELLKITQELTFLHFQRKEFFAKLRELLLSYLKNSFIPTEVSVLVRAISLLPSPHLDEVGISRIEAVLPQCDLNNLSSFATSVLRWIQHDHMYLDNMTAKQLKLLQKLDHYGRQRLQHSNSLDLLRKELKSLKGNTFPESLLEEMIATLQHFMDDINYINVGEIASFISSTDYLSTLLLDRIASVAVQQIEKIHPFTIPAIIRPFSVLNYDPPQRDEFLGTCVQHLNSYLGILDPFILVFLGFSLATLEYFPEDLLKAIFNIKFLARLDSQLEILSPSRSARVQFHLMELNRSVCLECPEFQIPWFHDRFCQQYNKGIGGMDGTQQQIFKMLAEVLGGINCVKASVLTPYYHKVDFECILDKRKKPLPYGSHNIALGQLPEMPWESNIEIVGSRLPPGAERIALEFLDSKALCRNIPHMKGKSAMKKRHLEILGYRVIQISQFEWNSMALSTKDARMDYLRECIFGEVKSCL

[6] = target: extended human kinome (kinase-like proteins) (Homo sapiens, UniProt Q9UIJ7); test: as above
[7] = target: protein kinases (human kinome) (Homo sapiens, UniProt P07947); assay type: cell-based; conditions: YES1 (P07947), experiment wp133, 4 hr
[8] = target: protein kinases (human kinome) (Homo sapiens, UniProt Q13233); assay type: cell-based; conditions: experiment wp105
[9] = target: protein kinases (human kinome) (Homo sapiens, UniProt Q14004); assay type: cell-based; conditions: for logFC CDK13: Accession Q14004-1
[10] = target: protein kinases (human kinome) (Homo sapiens, UniProt Q9HBH9); assay type: cell-based; conditions: for logFC MKNK2 (Q9HBH9-1): direction down; for logFC: MKNK2 (Q9HBH9-1)
[11] = target: protein kinases (human kinome) (Homo sapiens, UniProt Q9NYV4); assay type: cell-based
[12] = target: extended human kinome (kinase-like proteins) (Homo sapiens, UniProt Q16875); test: Whole cell quantitative proteomics: extended kinome hits; conditions: Accession Q16875, experiment wp133
Sequence of extended human kinome (kinase-like proteins) (Homo sapiens, UniProt Q16875) (Q16875 whole entry): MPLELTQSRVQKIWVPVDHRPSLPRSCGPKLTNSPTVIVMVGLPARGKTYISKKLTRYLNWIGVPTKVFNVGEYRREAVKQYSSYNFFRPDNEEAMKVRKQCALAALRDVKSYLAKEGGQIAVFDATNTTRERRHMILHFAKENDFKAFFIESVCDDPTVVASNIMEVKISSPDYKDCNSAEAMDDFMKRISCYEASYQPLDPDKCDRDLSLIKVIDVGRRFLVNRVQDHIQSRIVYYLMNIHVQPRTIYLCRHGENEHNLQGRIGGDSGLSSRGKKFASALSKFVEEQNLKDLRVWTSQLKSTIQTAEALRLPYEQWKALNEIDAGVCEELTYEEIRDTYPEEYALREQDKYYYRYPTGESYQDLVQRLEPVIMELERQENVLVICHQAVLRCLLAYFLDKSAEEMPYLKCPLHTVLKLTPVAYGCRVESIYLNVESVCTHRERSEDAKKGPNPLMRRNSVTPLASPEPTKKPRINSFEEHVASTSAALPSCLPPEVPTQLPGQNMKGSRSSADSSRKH

Sequence of protein kinases (human kinome) (Homo sapiens, UniProt Q15118) (Q15118 29-436): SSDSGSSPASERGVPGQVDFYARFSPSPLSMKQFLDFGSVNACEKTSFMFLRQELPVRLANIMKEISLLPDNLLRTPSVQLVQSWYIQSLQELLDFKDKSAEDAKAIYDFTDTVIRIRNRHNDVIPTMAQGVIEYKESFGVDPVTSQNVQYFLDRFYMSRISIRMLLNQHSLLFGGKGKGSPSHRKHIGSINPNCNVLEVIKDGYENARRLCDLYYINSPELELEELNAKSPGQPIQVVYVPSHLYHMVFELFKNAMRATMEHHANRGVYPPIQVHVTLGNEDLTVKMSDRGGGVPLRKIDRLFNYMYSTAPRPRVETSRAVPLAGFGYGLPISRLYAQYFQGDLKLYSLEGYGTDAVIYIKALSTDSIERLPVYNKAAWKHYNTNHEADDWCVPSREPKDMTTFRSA
Sequence of protein kinases (human kinome) (Homo sapiens, UniProt Q9NYV4) (Q9NYV4 whole entry): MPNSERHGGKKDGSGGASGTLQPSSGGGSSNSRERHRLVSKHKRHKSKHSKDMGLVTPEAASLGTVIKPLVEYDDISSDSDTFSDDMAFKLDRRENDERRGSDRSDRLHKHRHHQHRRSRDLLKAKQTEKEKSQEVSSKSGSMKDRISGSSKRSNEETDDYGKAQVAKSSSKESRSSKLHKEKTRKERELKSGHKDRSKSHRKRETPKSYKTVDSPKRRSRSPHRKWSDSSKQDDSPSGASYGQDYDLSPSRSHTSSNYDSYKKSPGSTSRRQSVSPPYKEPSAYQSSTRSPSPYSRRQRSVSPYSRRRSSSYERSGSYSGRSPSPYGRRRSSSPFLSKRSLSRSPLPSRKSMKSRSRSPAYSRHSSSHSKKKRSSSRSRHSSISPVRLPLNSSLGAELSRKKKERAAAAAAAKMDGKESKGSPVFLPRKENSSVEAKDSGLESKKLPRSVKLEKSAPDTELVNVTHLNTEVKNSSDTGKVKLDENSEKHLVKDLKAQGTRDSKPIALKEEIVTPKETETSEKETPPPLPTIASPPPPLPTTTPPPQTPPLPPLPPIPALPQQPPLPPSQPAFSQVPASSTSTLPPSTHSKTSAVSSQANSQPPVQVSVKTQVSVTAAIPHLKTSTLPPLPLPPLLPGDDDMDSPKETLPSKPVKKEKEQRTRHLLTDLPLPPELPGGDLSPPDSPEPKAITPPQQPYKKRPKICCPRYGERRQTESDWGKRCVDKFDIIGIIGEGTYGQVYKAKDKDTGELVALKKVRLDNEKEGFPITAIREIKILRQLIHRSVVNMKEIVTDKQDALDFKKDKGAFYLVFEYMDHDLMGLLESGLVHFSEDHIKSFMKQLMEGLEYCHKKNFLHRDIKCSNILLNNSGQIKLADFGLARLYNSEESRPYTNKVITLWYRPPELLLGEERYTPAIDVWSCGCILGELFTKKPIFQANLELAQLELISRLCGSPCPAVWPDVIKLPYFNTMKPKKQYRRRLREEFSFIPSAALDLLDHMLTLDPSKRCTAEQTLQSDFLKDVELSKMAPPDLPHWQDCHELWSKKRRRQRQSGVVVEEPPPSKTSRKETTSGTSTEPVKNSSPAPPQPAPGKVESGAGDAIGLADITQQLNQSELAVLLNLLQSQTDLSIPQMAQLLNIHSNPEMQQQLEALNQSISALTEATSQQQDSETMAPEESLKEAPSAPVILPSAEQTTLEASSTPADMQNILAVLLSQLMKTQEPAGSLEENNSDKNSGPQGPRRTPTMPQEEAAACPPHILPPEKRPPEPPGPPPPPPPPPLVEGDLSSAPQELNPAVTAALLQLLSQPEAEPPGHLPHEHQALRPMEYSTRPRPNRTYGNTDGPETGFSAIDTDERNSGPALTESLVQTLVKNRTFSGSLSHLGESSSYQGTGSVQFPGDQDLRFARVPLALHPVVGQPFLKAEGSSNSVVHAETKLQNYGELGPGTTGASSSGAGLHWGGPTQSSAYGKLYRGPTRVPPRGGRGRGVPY
Sequence of protein kinases (human kinome) (Homo sapiens, UniProt Q14004) (Q14004 whole entry): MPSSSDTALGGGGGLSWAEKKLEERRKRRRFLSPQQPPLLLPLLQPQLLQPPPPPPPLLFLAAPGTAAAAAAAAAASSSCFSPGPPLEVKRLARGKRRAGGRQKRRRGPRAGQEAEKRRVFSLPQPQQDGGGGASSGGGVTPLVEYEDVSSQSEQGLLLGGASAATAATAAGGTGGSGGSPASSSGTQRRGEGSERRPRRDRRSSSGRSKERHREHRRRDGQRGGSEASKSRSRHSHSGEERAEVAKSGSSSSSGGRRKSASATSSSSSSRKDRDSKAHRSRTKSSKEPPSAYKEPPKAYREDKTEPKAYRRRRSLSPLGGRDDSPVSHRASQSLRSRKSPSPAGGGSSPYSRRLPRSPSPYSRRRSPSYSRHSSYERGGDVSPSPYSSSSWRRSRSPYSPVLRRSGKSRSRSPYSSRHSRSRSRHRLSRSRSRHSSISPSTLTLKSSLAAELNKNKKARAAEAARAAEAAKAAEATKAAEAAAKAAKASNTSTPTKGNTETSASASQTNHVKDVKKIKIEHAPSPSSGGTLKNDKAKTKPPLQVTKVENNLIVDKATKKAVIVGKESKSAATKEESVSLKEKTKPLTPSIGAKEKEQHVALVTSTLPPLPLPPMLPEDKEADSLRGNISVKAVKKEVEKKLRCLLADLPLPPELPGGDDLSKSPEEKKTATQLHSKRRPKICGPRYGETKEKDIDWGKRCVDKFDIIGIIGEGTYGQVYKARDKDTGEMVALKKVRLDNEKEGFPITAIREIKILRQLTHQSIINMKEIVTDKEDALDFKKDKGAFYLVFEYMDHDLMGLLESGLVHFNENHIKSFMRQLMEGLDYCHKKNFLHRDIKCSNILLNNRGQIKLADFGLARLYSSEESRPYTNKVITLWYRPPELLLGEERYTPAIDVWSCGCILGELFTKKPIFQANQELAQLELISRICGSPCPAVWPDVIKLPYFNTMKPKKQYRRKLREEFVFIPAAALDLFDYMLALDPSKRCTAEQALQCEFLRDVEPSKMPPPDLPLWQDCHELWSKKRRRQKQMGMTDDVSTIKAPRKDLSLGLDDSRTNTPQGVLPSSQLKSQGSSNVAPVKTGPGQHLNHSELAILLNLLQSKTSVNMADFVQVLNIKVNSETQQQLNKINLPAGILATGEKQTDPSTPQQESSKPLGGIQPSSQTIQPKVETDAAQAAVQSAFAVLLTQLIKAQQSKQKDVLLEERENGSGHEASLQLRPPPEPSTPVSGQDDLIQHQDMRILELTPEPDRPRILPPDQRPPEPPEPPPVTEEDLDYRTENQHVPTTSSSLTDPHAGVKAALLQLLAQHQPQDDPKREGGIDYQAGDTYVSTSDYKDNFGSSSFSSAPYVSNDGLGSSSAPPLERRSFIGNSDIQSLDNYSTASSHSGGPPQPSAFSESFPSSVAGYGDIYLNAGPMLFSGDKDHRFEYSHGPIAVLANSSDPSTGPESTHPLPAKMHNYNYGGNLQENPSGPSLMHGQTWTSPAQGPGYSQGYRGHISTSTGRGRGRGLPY
Sequence of protein kinases (human kinome) (Homo sapiens, UniProt P41240) (P41240 whole entry): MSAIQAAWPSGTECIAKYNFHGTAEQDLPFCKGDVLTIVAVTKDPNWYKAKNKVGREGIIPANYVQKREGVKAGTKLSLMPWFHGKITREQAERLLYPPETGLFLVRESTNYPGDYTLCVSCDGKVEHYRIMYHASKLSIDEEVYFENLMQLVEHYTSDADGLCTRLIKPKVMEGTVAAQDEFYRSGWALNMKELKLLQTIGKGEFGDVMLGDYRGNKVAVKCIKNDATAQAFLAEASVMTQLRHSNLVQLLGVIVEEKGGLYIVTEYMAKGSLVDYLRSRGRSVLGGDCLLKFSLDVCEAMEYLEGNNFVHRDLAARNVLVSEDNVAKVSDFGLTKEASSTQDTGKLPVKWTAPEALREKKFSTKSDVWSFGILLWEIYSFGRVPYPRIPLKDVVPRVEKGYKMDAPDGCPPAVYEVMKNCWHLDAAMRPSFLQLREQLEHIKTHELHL
Sequence of protein kinases (human kinome) (Homo sapiens, UniProt Q9HBH9) (Q9HBH9 whole entry): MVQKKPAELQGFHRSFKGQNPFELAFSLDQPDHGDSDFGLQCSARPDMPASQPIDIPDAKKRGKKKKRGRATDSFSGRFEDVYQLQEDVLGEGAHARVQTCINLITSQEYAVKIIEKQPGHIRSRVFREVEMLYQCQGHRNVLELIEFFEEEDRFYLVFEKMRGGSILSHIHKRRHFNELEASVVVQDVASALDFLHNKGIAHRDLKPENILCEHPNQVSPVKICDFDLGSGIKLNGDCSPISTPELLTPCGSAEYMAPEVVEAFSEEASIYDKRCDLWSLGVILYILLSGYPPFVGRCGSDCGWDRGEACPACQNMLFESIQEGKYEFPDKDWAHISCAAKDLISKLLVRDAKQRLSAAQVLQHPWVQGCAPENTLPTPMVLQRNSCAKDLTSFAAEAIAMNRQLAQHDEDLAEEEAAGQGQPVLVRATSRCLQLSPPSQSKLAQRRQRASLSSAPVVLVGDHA
Sequence of extended human kinome (kinase-like proteins) (Homo sapiens, UniProt Q9UIJ7) (Q9UIJ7 whole entry): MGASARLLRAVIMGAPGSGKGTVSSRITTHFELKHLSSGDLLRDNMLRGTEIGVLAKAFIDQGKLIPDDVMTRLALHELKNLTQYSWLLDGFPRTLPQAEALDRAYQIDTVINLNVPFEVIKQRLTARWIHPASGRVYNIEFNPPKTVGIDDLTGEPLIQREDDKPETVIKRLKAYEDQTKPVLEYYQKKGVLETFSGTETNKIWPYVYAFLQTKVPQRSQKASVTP

SMILES: CC(C)(C)c1nc(-c2cccc(NS(=O)(=O)c3c(F)cccc3F)c2F)c(-c2ccnc(NCCOCCNC(=O)CCOCCOCCNc3cccc4c3C(=O)N(C3CCC(=O)NC3=O)C4=O)n2)s1 (centres unmarked) [DD.03.106]
- logFC CDK2 (P24941-1) ([1]; Experiment wp147, 2 uM): −0.4932
- logFC CDK2 (P24941-1) ([1]; Experiment wp147, 4 uM): −0.5248
- logFC CDK2 (P24941-1) ([1]; experiment wp137): −0.3437
- logFC CDK2 (P24941-1) ([1]; experiment wp137, direction of change down): −0.3437
- logFC CDK2 (P24941-1) ([1]; experiment wp147, 1 uM): −0.3285
- logFC CDK2 (P24941-1) ([1]; experiment wp147, 1 uM, direction of change down): −0.3285
- logFC CDK2 (P24941-1) ([1]; experiment wp147, 2 uM, direction of change down): −0.4932
- logFC CDK2 (P24941-1) ([1]; experiment wp147, 4 uM, direction of change down): −0.5248
- logFC of CSK ([2]; experiment wp147, 4 uM): −0.5149
- logFC CSK ([2]; experiment wp147, 4 uM): −0.5149
- logFC ([3]; 1 uM): −0.3363
- logFC PDK1 ([3]; 1 uM): −0.3363
- logFC ([3]; 4 uM): −0.6592
- logFC PDK1 ([3]; 4 uM): −0.6592
- logFC PDK2 (Q15119-1) [4]: −0.727
- logFC FASTKD1 (Q53R41) ([5]; experiment wp147, 4 uM): −0.6262
- logFC AK3 (Q9UIJ7-1) ([6]; experiment wp147, 4 uM): −0.7202

SMILES: CC(C)S(=O)(=O)c1ccccc1Nc1nc(Nc2ccc(N3CCN(CCOCCNC(=O)CNc4cccc5c4C(=O)N(C4CCC(=O)NC4=O)C5=O)CC3)cc2)ncc1Cl (centres unmarked) [SK.3.91]
- logFC [7]: −0.5025
- logFC ([7]; direction down): −0.5025
- logFC CDK2 (P24941-1) ([1]; Experiment wp103): −0.4588
- logFC CDK2 (P24941-1) ([1]; Experiment wp105, direction of change down): −0.4593
- logFC CDK2 (P24941-1) ([1]; Experiment wp107): −0.7583
- logFC CDK2 (P24941-1) ([1]; Experiment wp160, 2 hr): −0.383
- logFC CDK2 (P24941-1) ([1]; Experiment wp172): −0.8996
- logFC CDK2 (P24941-1) ([1]; experiment wp016): −0.5115
- logFC CDK2 (P24941-1) ([1]; experiment wp016, 1 uM): −1.047
- logFC CDK2 (P24941-1) ([1]; experiment wp016, 1 uM, direction of change down): −1.047
- logFC CDK2 (P24941-1) ([1]; experiment wp016, direction of change down): −0.5115
- logFC CDK2 (P24941-1) ([1]; experiment wp103, direction of change down): −0.4588
- logFC CDK2 (P24941-1) ([1]; experiment wp105): −0.4593
- logFC CDK2 (P24941-1) ([1]; experiment wp107, direction of change down): −0.7583
- logFC CDK2 (P24941-1) ([1]; experiment wp133, 2 hr): −0.4306
- logFC CDK2 (P24941-1) ([1]; experiment wp133, 2 hr, direction of change down): −0.4306
- logFC CDK2 (P24941-1) ([1]; experiment wp133, 4 hr): −0.6908
- logFC CDK2 (P24941-1) ([1]; experiment wp133, 4 hr, direction of change down): −0.6908
- logFC CDK2 (P24941-1) ([1]; experiment wp160, 2 hr, direction of change down): −0.383
- logFC CDK2 (P24941-1) ([1]; experiment wp160, 4 hr): −0.647
- logFC CDK2 (P24941-1) ([1]; experiment wp160, 4 hr, direction of change down): −0.647
- logFC CDK2 (P24941-1) ([1]; experiment wp172, direction of change down): −0.8996
- logFC of CSK ([2]; experiment wp016): −0.3254
- logFC of CSK ([2]; experiment wp016, 1 uM): −0.6596
- logFC of CSK ([2]; experiment wp103): −0.4343
- logFC of CSK ([2]; experiment wp105): −0.7044
- logFC of CSK ([2]; experiment wp107): −0.5646
- logFC of CSK ([2]; experiment wp133, 4 hr): −0.5492
- logFC of CSK ([2]; experiment wp160, 4 hr): −0.4976
- logFC of CSK ([2]; experiment wp172): −0.4225
- logFC CSK ([2]; experiment wp016, 1 uM): −0.6596
- logFC CSK ([2]; experiment wp016): −0.3254
- logFC CSK ([2]; experiment wp103): −0.4343
- logFC CSK ([2]; experiment wp105): −0.7044
- logFC CSK ([2]; experiment wp107): −0.5646
- logFC CSK ([2]; experiment wp133, 4 hr): −0.5492
- logFC CSK ([2]; experiment wp160, 4 hr): −0.4976
- logFC CSK ([2]; experiment wp172): −0.4225
- logFC MAP3K1 ([8]; Accession Q13233, direction down): −0.3258
- logFC MAP3K1 ([8]; MAP3K1 (Q13233)): −0.3258
- logFC CDK13 ([9]; experiment wp016): −0.6046
- logFC CDK13 ([9]; experiment wp016, 1 uM): −0.5749
- logFC CDK13 ([9]; experiment wp103): −0.4833
- logFC CDK13 ([9]; experiment wp105): −0.4649
- logFC CDK13 ([9]; experiment wp107): −0.7112
- logFC CDK13 ([9]; experiment wp133, 4 hr): −0.5562
- logFC CDK13 ([9]; experiment wp160, 4 hr): −0.4805
- logFC CDK13 ([9]; experiment wp172): −0.859
- logFC ([9]; CDK13 (Q14004-1), experiment wp016, 1 uM): −0.5749
- logFC CDK13 (Q14004-1) ([9]; Experiment wp172): −0.859
- logFC CDK13 (Q14004-1) ([9]; experiment wp016): −0.6046
- logFC CDK13 (Q14004-1) ([9]; experiment wp103): −0.4833
- logFC CDK13 (Q14004-1) ([9]; experiment wp105): −0.4649
- logFC CDK13 (Q14004-1) ([9]; experiment wp107): −0.7112
- logFC CDK13 (Q14004-1) ([9]; experiment wp133, 4 hr): −0.5562
- logFC CDK13 (Q14004-1) ([9]; experiment wp160, 4 hr): −0.4805
- logFC MKNK2 (Q9HBH9-1) ([10]; Experiment wp133, 1 hr): −0.5168
- logFC MKNK2 (Q9HBH9-1) ([10]; Experiment wp133, 2 hr): −0.5303
- logFC MKNK2 (Q9HBH9-1) ([10]; Experiment wp133, 4 hr): −0.8537
- logFC ([10]; experiment wp133, 1 hr): −0.5168
- logFC ([10]; experiment wp133, 2 hr): −0.5303
- logFC ([10]; experiment wp133, 4 hr): −0.8537
- logFC CDK12 ([11]; Accession Q9NYV4-1, experiment wp016): −1.134
- logFC CDK12 ([11]; Accession Q9NYV4-1, experiment wp016, 1 uM): −0.9325
- logFC CDK12 ([11]; Accession Q9NYV4-1, experiment wp172): −1.234
- logFC CDK12 ([11]; CDK12 (Q9NYV4-1), experiment wp016): −1.134
- logFC CDK12 ([11]; CDK12 (Q9NYV4-1), experiment wp016, 1 uM): −0.9325
- logFC CDK12 ([11]; CDK12 (Q9NYV4-1), experiment wp172): −1.234
- logFC PFKFB3 ([12]; 2 hr): −0.3539
- logFC PFKFB3 ([12]; 4 hr): −0.6035
- logFC FASTKD1 (Q53R41) ([5]; experiment wp160, 1 hr): −0.8675
- logFC AK3 (Q9UIJ7-1) ([6]; experiment wp160, 1 hr): −0.7434

— patent publication US20240269139A1, “COMPOUNDS FOR TARGETED PROTEIN DEGRADATION OF KINASES” (DANA-FARBER CANCER INSTITUTE, INC., priority 2020, published 2024)
